Results from US20040242650A1, “Extended dosing regimen” (priority 2003, published 2004).
Where two headings read alike, the source gives them in different places.

Legend:
[1] = Pharmacokinetic profiles of patients on the extended dosing regimen (plasma, LCMS/MS, day 15); type: in vivo; conditions: for AUC / half-life / Cmax / concentration at 15 day / Tmax: human, plasma, po; for concentration at 15 day: read-out: Cmin
Protocol: (§1) A total of 43 patients were enrolled in the study. The tumor types were as follows: colorectal (23), sarcoma (5), mesothelioma (3), salivary gland (2), endometrial (2), unknown (2), hepatoma (1), melanoma (1), renal cell (1), lung (1), ovary (1), and granulosa cell (1). Patients were treated once a day (QD) or twice a day (BID) for 21 days with N-[2-[(4-hydroxyphenyl)amino]-3-pyridyl]-4-methoxybenzenesulfonamide followed by a 7-day period where no drug was received. Doses were escalated by 50 mg/day (25 mg BID). Three patients were initially treated at each dose level. […] If additional patients experienced dose-limiting toxicity, on occasion the dose level was expanded to nine patients to further assess tolerability. Response assessment was performed every two cycles.
In evaluating the pharmacokinetic profiles of the patients, plasma samples were collected pre-dose and over 6 hours following dosing on day 15. Plasma concentrations of N-[2-[(4-hydroxyphenyl)amino]-3-pyridyl]-4-methoxybenzenesulfonamide were determined by a validated LCMS/MS assay. Pharmacokinetic parameter estimates were obtained using noncompartmental methods, and included maximum observed concentration (Cmax), time to Cmax (Tmax), minimum observed concentration (Cmin), half-life (t1/2), and area under the plasma concentration-time profile over a dosing interval (AUCτ). To facilitate calculation of day 15 AUCs, pre-dose concentrations at the beginning and end of the dosing interval were assumed to be equal. Results are summarized below (Table 2).

[2] = Dose limiting toxicity in patients, 21-day QD or BID dosing; type: in vivo
Protocol: as §1

[3] = 25 mg, 25 mg BID oral, day 15, plasma, N=2
[4] = 25 mg, 25 mg QD oral, day 15, plasma, N=4
[5] = 50 mg, 50 mg BID oral, day 15, plasma, N=2
[6] = 50 mg, 50 mg QD oral, day 15, plasma, N=3
[7] = 75 mg, 75 mg BID oral, day 15, plasma, N=3
[8] = 100 mg, 100 mg BID oral, day 15, plasma, N=3
[9] = 100 mg, 100 mg QD oral, day 15, plasma, N=3
[10] = 200 mg, 200 mg QD oral, day 15, plasma, N=2

In the case of COc1ccc(S(=O)(=O)Nc2cccnc2Nc2ccc(O)cc2)cc1 [N-[2-[(4-hydroxyphenyl)amino]-3-pyridyl]-4-methoxybenzenesulfonamide], the Cmin ([1]; 150 mg QD oral, day 15, plasma, N=3) is reported as 700 ± 400 ng/mL, the “accumulation of plasma concentrations” value ([1]; QD or BID dosing) is reported as “accumulated minimally” and the “variation of Tmax and t1/2 with dose” value ([1]; across doses studied) is reported as “did not appear to vary with dose”. For the same molecule, the “dose proportionality of plasma concentrations” value ([1]; across the range of doses studied) was “dose-proportional (linear) pharmacokinetics”, the “Cmin concentrations, BID vs QD regimens” value ([1]; for a given daily dose) was “tended to be greater for BID regimens compared to QD regimens” and the AUC ([1]; 25 mg, 25 mg BID oral, day 15, N=2, AUC0-12) was 9100 ± 400 ng·h/mL. For the same molecule, the half-life ([1]; 25 mg, 25 mg BID oral, day 15, N=2, harmonic mean and pseudo standard deviation, read-out: t1/2 (converted)) was 3.8 ± 1.7 h, the Cmax [1, 3] was 2000 ± 600 ng/mL and the concentration at 15 day [1, 3] was 300 ng/mL. It also gave a Tmax ([1]; 25 mg, 25 mg BID oral, day 15, plasma, N=2, read-out: Tmax) of 2.3 ± 2.5 h, an AUC ([1]; 25 mg, 25 mg QD oral, day 15, N=4, AUC0-24) of 9000 ± 2900 ng·h/mL and a half-life ([1]; 25 mg, 25 mg QD oral, day 15, N=4, harmonic mean and pseudo standard deviation, read-out: t1/2 (converted)) of 6.3 ± 0.2 h. It also gave a Cmax [1, 4] of 1700 ± 300 ng/mL, a concentration at 15 day [1, 4] of 100 ng/mL and a Tmax ([1]; 25 mg, 25 mg QD oral, day 15, plasma, N=4, read-out: Tmax) of 1.3 ± 0.5 h. For the same molecule, the AUC ([1]; 50 mg, 50 mg BID oral, day 15, N=2, AUC0-12) was 16400 ± 3200 ng·h/mL, the half-life ([1]; 50 mg, 50 mg BID oral, day 15, N=2, harmonic mean and pseudo standard deviation, read-out: t1/2 (converted)) was 4 ± 0.6 h and the Cmax [1, 5] was 5000 ± 900 ng/mL. For the same molecule, the concentration at 15 day [1, 5] was 400 ± 200 ng/mL, the Tmax ([1]; 50 mg, 50 mg BID oral, day 15, plasma, N=2, read-out: Tmax) was 0.5 h and the AUC ([1]; 50 mg, 50 mg QD oral, day 15, N=3, AUC0-24) was 20400 ± 5000 ng·h/mL. It also gave a half-life ([1]; 50 mg, 50 mg QD oral, day 15, N=3, harmonic mean and pseudo standard deviation, read-out: t1/2 (converted)) of 4.6 ± 2.4 h, a Cmax [1, 6] of 3500 ± 200 ng/mL and a concentration at 15 day [1, 6] of 100 ± 100 ng/mL. For the same molecule, the Tmax ([1]; 50 mg, 50 mg QD oral, day 15, plasma, N=3, read-out: Tmax) was 1.7 ± 0.6 h, the AUC ([1]; 75 mg, 75 mg BID oral, day 15, N=3, AUC0-12) was 17000 ± 3600 ng·h/mL and the half-life ([1]; 75 mg, 75 mg BID oral, day 15, N=3, harmonic mean and pseudo standard deviation, read-out: t1/2 (converted)) was 5.3 ± 0.9 h. For the same molecule, the Cmax [1, 7] was 3700 ± 1200 ng/mL, the concentration at 15 day [1, 7] was 600 ng/mL and the Tmax ([1]; 75 mg, 75 mg BID oral, day 15, plasma, N=3, read-out: Tmax) was 1.5 ± 0.9 h. It also gave an AUC ([1]; 100 mg, 100 mg BID oral, day 15, N=3, AUC0-12) of 24100 ± 10000 ng·h/mL, a half-life ([1]; 100 mg, 100 mg BID oral, day 15, N=3, harmonic mean and pseudo standard deviation, read-out: t1/2 (converted)) of 6.1 ± 2.3 h and a Cmax [1, 8] of 3500 ± 1300 ng/mL. The concentration at 15 day [1, 8] was 900 ± 400 ng/mL, the Tmax ([1]; 100 mg, 100 mg BID oral, day 15, plasma, N=3, read-out: Tmax) was 2.3 ± 1.5 h and the AUC ([1]; 100 mg, 100 mg QD oral, day 15, N=3, AUC0-24) was 39500 ± 7900 ng·h/mL. The half-life ([1]; 100 mg, 100 mg QD oral, day 15, N=3, harmonic mean and pseudo standard deviation, read-out: t1/2 (converted)) was 5.8 ± 1.3 h, the Cmax [1, 9] was 8400 ± 900 ng/mL and the concentration at 15 day [1, 9] was 200 ± 100 ng/mL. It also gave a Tmax ([1]; 100 mg, 100 mg QD oral, day 15, plasma, N=3, read-out: Tmax) of 1.7 ± 0.6 h, an AUC ([1]; 150 mg, 150 mg QD oral, day 15, N=3, AUC0-24) of 55100 ± 12200 ng·h/mL and a half-life ([1]; 150 mg, 150 mg QD oral, day 15, N=3, harmonic mean and pseudo standard deviation, read-out: t1/2 (converted)) of 8.5 ± 1.5 h. For the same molecule, the Cmax ([1]; 150 mg, 150 mg QD oral, day 15, plasma, N=3) was 8200 ± 2300 ng/mL, the Tmax ([1]; 150 mg, 150 mg QD oral, day 15, plasma, N=3, read-out: Tmax) was 1.2 ± 0.8 h and the AUC ([1]; 200 mg, 200 mg QD oral, day 15, N=2, AUC0-24) was 60200 ± 34200 ng·h/mL. For the same molecule, the half-life ([1]; 200 mg, 200 mg QD oral, day 15, N=2, harmonic mean and pseudo standard deviation, read-out: t1/2 (converted)) was 7 ± 1 h, the Cmax [1, 10] was 9100 ± 5900 ng/mL and the concentration at 15 day [1, 10] was 500 ± 300 ng/mL. The Tmax ([1]; 200 mg, 200 mg QD oral, day 15, plasma, N=2, read-out: Tmax) was 2 h, the Tmax ([1]; oral dosing, all regimens, read-out: overall mean Tmax) was 1.5 h and the half-life ([1]; oral dosing, all regimens, read-out: overall mean t1/2 (converted)) was 6 h. The “absorption following oral dosing” value ([1]; oral dosing, patients) was “rapidly absorbed”, the dose limiting toxicity ([2]; patients receiving up to 150 mg of drug per day) was “No dose limiting toxicity” and the “dose limiting toxicities observed” value ([2]; patients, QD or BID for 21 days followed by 7 days off) was “ileus, peripheral neuropathy, fatigue, and abdominal pain”.
